In patent US20260258021A1, “MONOFLUORINATED COUMARIN FLUOROPHORES AND USES THEREOF” (Ohio State Innovation Foundation, priority 2023, published 2026):
Several values for one entry are separate records, joined by “and”; a condition that tells them apart may be missing. Equal entries are not always repeated. Where two headings read alike, the source gives them in different places. Marks after values point to notes of the source that are not given here. Values belong to the compound of their own block, whether it stands above or below them.

Assays:
HEK293T cells = experiment: Cytotoxicity by propidium iodide staining in the FPCBA with DDR1-expressing cells; type: cell-based; conditions: living HEK293T cells, FPCBA competition experiments, [6FC-Dasatinib]=1 μM
Experimental: FIGS. 6A and 6B depict a fluorescent probe cellular binding assay (FPCBA) with 6FC-Dasatanib and native DDR1 kinase (IRES-mVenus). (FIG. 6A) Binding of 6FC-Dasatanib to native DDR1 expressed in living HEK293T cells by flow cytometry (2 h, 37° C.). (FIG. 6B) Competition experiments against native DDR1 in living HEK293T cells with the kinase inhibitors ponatinib and dasatinib by flow cytometry. [6FC-Dasatinib]=1 μM.
The previously reported FPCBA approach (Yin, Y. et al. J Am. Chem. Soc. 2024, 146 (1), 187-200) was used to analyze binding of small molecules to native full length DDR1 kinase overexpressed in living HEK293T cells (IRES-mVenus vector) by flow cytometry.

[1] = literature; cited from earlier work
[2] = system: microtubules of living HeLa cells; conditions: for Kd: read-out: cellular Kd
[3] = Absorbance and fluorescence spectroscopy of coumarin amides (λmax, molar extinction coefficient, quantum yield); type: physicochemical; conditions: for ε405 nm (molar extinction coefficient): 405 nm, 10% DMSO; for ε405 nm (molar extinction coefficient) / Φ (quantum yield): PBS; for Φ (quantum yield) / Abs. λmax / Em. λmax: 1% DMSO; for Φ (quantum yield): relative to 30; for Abs. λmax / Em. λmax: aqueous PBS
Experimental: FIG. […] FIG. 4B depicts the determination of molar extinction coefficients (ε405 nm) of 26-28 as previously described in J. Am. Chem. Soc. […] The integrated fluorescence intensity (Ex. 405 nm, Em. 420-700 nm) was plotted against the maximum absorbance of the sample at the concentration studied (100 nM-6.25 nM) as extrapolated from absorbance measurements at higher concentrations. The slope determined by linear least squares (zero intercept) is proportional to the quantum yield. Spectra were acquired with a BMG LabTech ClarioStar Plus microtiterplate reader.

physchem = conditions: aqueous buffers of varied pH
[4] = cited from earlier work; for ε405 nm (molar extinction coefficient): 405 nm, PBS, 10% DMSO, previously described; for Φ (quantum yield): pH 7.4, 1% DMSO, based on a previously reported PB-biotin amide
purified microtubules = conditions: literature; cited from earlier work
HeLa cells = conditions: 3 h, 37° C., absence of verapamil
[5] = living HeLa cells, 3 h, 37° C., absence of verapamil
[6] = living HeLa cells, 3 h, 37° C., presence of verapamil (100 μM)

Compound: Cc1nc(Nc2ncc(C(=O)Nc3c(C)cccc3Cl)s2)cc(N2CCN(CCOCCNC(=O)c3cc4cc(F)c(O)cc4oc3=O)CC2)n1 [6FC-Dasatinib, N-(2-chloro-6-methylphenyl)-2-((6-(4-(2-(2-(6-fluoro-7-hydroxy-2-oxo-2H-chromene-3-carboxamido)ethoxy)ethyl)piperazin-1-yl)-2-methylpyrimidin-4-yl)amino)thiazole-5-carboxamide]
- Cytotoxicity (propidium iodide staining) (HEK293T cells): No cytotoxicity was observed

Compound: O=C(O)c1cc2ccc(O)cc2oc1=O [Compound 1, 7-hydroxycoumarin-3-carboxylic acid]
- pKa of the phenol [1]: 7.0-7.5

Compound: O=C(O)c1cc2cc(F)c(O)c(F)c2oc1=O [Compound 2, Pacific Blue]
- pKa of the phenol [1]: 4.7

Compound: CC(=O)O[C@H]1C(=O)[C@]2(C)[C@@H](OC(=O)CCCNC(=O)c3cc4c(F)cc(O)cc4oc3=O)C[C@H]3OC[C@@]3(OC(C)=O)[C@H]2[C@H](OC(=O)c2ccccc2)[C@]2(O)C[C@H](OC(=O)[C@H](O)[C@@H](NC(=O)c3ccccc3)c3ccccc3)C(C)=C1C2(C)C [Compound 8, (2aR,4S,4aS,6R,9S,11S,12S,12bS)-9-(((2R,3S)-3-benzamido-2-hydroxy-3-phenylpropanoyl)oxy)-12-(benzoyloxy)-4-((4-(5-fluoro-7-hydroxy-2-oxo-2H-chromene-3-carboxamido)butanoyl)oxy)-11-hydroxy-4a,8,13,13-tetramethyl-5-oxo-3,4,4a,5,6,9,10,11,12,12a-decahydro-1H-7,11-methanocyclodeca[3,4]benzo[1,2-b]oxete-6,12b(2aH)-diyl diacetate]
- S/B (maximal signal-to-background, fold change) ([2]; 0.4 μM probe, absence of verapamil): 7 fold
- cellular Kd [2, 5]: low affinity prevented accurate determination
- Kd [2, 6]: 150 nM

Compound: CC(=O)O[C@H]1C(=O)[C@]2(C)[C@@H](OC(=O)CCCNC(=O)c3cc4cc(F)c(O)cc4oc3=O)C[C@H]3OC[C@@]3(OC(C)=O)[C@H]2[C@H](OC(=O)c2ccccc2)[C@]2(O)C[C@H](OC(=O)[C@H](O)[C@@H](NC(=O)c3ccccc3)c3ccccc3)C(C)=C1C2(C)C [Compound 9, (2aR,4S,4aS,6R,9S,11S,12S,12bS)-9-(((2R,3S)-3-benzamido-2-hydroxy-3-phenylpropanoyl)oxy)-12-(benzoyloxy)-4-((4-(6-fluoro-7-hydroxy-2-oxo-2H-chromene-3-carboxamido)butanoyl)oxy)-11-hydroxy-4a,8,13,13-tetramethyl-5-oxo-3,4,4a,5,6,9,10,11,12,12a-decahydro-1H-7,11-methanocyclodeca[3,4]benzo[1,2-b]oxete-6,12b(2aH)-diyl diacetate]
- Kd [2, 5]: 2400 nM
- Kd [2, 6]: 150 nM

Compound: CC(=O)O[C@H]1C(=O)[C@]2(C)[C@@H](OC(=O)CCCNC(=O)c3cc4ccc(O)c(F)c4oc3=O)C[C@H]3OC[C@@]3(OC(C)=O)[C@H]2[C@H](OC(=O)c2ccccc2)[C@]2(O)C[C@H](OC(=O)[C@H](O)[C@@H](NC(=O)c3ccccc3)c3ccccc3)C(C)=C1C2(C)C [Compound 10, (2aR,4S,4aS,6R,9S,11S,12S,12bS)-9-(((2R,3S)-3-Benzamido-2-hydroxy-3-phenylpropanoyl)oxy)-12-(benzoyloxy)-4-((4-(8-fluoro-7-hydroxy-2-oxo-2H-chromene-3-carboxamido)butanoyl)oxy)-11-hydroxy-4a,8,13,13-tetramethyl-5-oxo-3,4,4a,5,6,9,10,11,12,12a-decahydro-1H-7,11-methanocyclodeca[3,4]benzo[1,2-b]oxete-6,12b(2aH)-diyl diacetate]
- Kd [2, 5]: 3500 nM
- Kd [2, 6]: 230 nM

- ε405 nm (molar extinction coefficient) ([3]; pH 7.4): 25,000 (7.4) M^−1 cm^−1
- Φ (quantum yield) ([3]; pH 7.4): 0.73
- Abs. λmax ([3]; pH 7.4): 400 nm
- Em. λmax ([3]; pH 7.4): 449 nm
- pKa (physchem): 6.9
Compound: CCCCCCNC(=O)c1cc2c(F)cc(O)cc2oc1=O [Compound 26, 5-Fluoro-N-hexyl-7-hydroxy-2-oxo-2H-chromene-3-carboxamide]

- ε405 nm (molar extinction coefficient) ([3]; pH 7.4): 37,000 M^−1 cm^−1
- Φ (quantum yield) ([3]; pH 7.4): 0.84
- Abs. λmax ([3]; pH 7.4): 401 nm
- Em. λmax ([3]; pH 7.4): 451 nm
- Brightness (product of molar extinction coefficient and quantum yield) relative to PB-hexanamide (30) ([3]; pH 7.4): 145%
- pKa (physchem): 6.5
Compound: CCCCCCNC(=O)c1cc2cc(F)c(O)cc2oc1=O [Compound 27, 6-Fluoro-N-hexyl-7-hydroxy-2-oxo-2H-chromene-3-carboxamide]
- ε405 nm (molar extinction coefficient) ([3]; pH 7.4, listed as 6FC-hexanamide (27)): 37,000 M^−1 cm^−1 and 37,000 (7.4) M^−1 cm^−1

- ε405 nm (molar extinction coefficient) ([3]; pH 7.4): 28,000 (7.4) M^−1 cm^−1
- Φ (quantum yield) ([3]; pH 7.4): 0.69
- Abs. λmax ([3]; pH 7.4): 402 nm
- Em. λmax ([3]; pH 7.4): 457 nm
- pKa (physchem): 6
Compound: CCCCCCNC(=O)c1cc2ccc(O)c(F)c2oc1=O [Compound 28, 8-Fluoro-N-hexyl-7-hydroxy-2-oxo-2H-chromene-3-carboxamide]

- Φ (quantum yield) ([3]; pH 7.4): 0.35
- Φ (quantum yield) ([3]; pH 10): 0.62
- Abs. λmax ([3]; pH 7.4): 401 nm
- Em. λmax ([3]; pH 7.4): 447 nm
- pKa (physchem): 7.3
Compound: CCCCCCNC(=O)c1cc2ccc(O)cc2oc1=O [Compound 29, N-Hexyl-7-hydroxy-2-oxo-2H-chromene-3-carboxamide, reference compound]
- ε405 nm (molar extinction coefficient) ([4]; pH 10): 22,000 (10) M^−1 cm^−1

- Abs. λmax ([3]; pH 7.4): 403 nm
- Em. λmax ([3]; pH 7.4): 447 nm
- pKa (physchem): 4.1
Compound: CCCCCCNC(=O)c1cc2cc(F)c(O)c(F)c2oc1=O [Compound 30, 6,8-Difluoro-N-hexyl-7-hydroxy-2-oxo-2H-chromene-3-carboxamide, reference compound]
- ε405 nm (molar extinction coefficient) ([4]; pH 7.4): 29,000 (7.4) M^−1 cm^−1
- Φ (quantum yield) [4]: 0.74
- Φ (quantum yield) ([4]; listed as PB-hexanamide (30)): 0.74^‡

Compound: COC(=O)c1cc2cc(F)c(O)c(F)c2oc1=O [PB methyl ester]
- pKa of the phenol [1]: 3.7

Compound: CC(=O)O[C@H]1C(=O)[C@@]2(C)[C@H]([C@H](OC(=O)c3ccccc3)[C@]3(O)C[C@H](OC(=O)[C@H](O)[C@@H](NC(=O)c4ccccc4)c4ccccc4)C(C)=C1C3(C)C)[C@]1(OC(C)=O)CO[C@@H]1C[C@@H]2O [paclitaxel]
- Ki (purified microtubules): 19 nM and 27 nM and 31 nM

Compound: (2aR,4S,4aS,6R,9S,11S,12S,12bS)-9-(((2R,3S)-3-benzamido-2-hydroxy-3-phenylpropanoyl)oxy)-12-(benzoyloxy)-11-hydroxy-4-((4-(7-hydroxy-2-oxo-2H-chromene-3-carboxamido)butanoyl)oxy)-4a,8,13,13-tetramethyl-5-oxo-3,4,4a,5,6,9,10,11,12,12a-decahydro-1H-7,11-methanocyclodeca[3,4]benzo[1,2-b]oxete-6,12b(2aH)-diyldiacetate [Compound 6]
- Cellular uptake (HeLa cells): high cellular uptake
